In data set [1] the test system is CYP1A2. Kind of data set: western blot analysis, CYP1A2 protein expression in HepG2 cells. It is filed as in vitro ADME, human. The note with it: for effect on CYP1A2 protein expression: HepG2 cells, 48 h, western blot densitometry normalized to β-actin, vs DMSO control. The procedure:
All compounds were diluted with concentrated DMSO.
A general note: Immunoblotting shows a protein as a band on a membrane.

Data set [2] has as its system CYP2D6. Put plainly: multiplex RT-qPCR, CYP2D6 mRNA expression in HepG2 cells. As to conditions: concomitant furafylline and omeprazole, control treated with omeprazole. (In general: Quantitative PCR measures a nucleic acid by following its amplification.)
Data set [3] relates to CYP3A4. Put plainly: western blot analysis, CYP3A4 protein expression in HepG2 cells. As to conditions: for effect on CYP3A4 protein expression: HepG2 cells, 48 h, western blot densitometry normalized to β-actin, vs DMSO control.
Data set [4] relates to CYP1A2. Kind of data set: multiplex RT-qPCR, CYP1A2 mRNA expression in HepG2 cells. As to conditions: for concentration from which CYP1A2 mRNA induction was detected/observed: not necessarily statistically significant; for concentration with statistically significant CYP1A2 mRNA induction: P < 0.05 vs control.
Data set [5] relates to CYP3A4. Put plainly: multiplex RT-qPCR, CYP3A4 mRNA expression in HepG2 cells.
Data set [6] has as its system CYP2D6. Put plainly: western blot analysis, CYP2D6 protein expression in HepG2 cells. It is filed as in vitro ADME, human. The note with it: for effect on CYP2D6 protein expression: HepG2 cells, 48 h, western blot densitometry normalized to β-actin, vs DMSO control.
In data set [7] the test system is CYP2C9. Set-up: method as in Pekthong et al. ([2008]). The note with it: human microsomes; ref Pekthong et al. ([2008]); cited from earlier work.
Data set [8] has as its system CYP1A2. Set-up: method as in Pekthong et al. ([2008]). The note with it: human microsomes; ref Pekthong et al. ([2008]); cited from earlier work.
For data set [9], the system named is CYP1A2. On the set-up: method as in Pekthong et al. [2009]. The note with it: human hepatocytes; ref Pekthong et al. [2009]; cited from earlier work.
The subject of the next data set is 3A4. On the set-up: method as in Pekthong et al. [2009]. As to conditions: human hepatocytes; ref Pekthong et al. [2009]; cited from earlier work.
Data set [10] relates to CYP3A4. Set-up: method as in Pekthong et al. ([2008]). The note with it: human microsomes; ref Pekthong et al. ([2008]); cited from earlier work.
Another data set has as its system 2C9. Set-up: method as in Pekthong et al. [2009]. The note with it: human hepatocytes; ref Pekthong et al. [2009]; cited from earlier work.
Data set [11] deals with CYP3A4. On the set-up: method as in Graber-Maier et al. [2010]. The note with it: intestinal cells; ref Graber-Maier et al. [2010]; cited from earlier work.
For data set [12], the system named is CYP1A2. Set-up: method as in Wen et al. [2002]. As to conditions: 48 h exposure, cultured human hepatocytes; ref Wen et al. [2002]; cited from earlier work.
The subject of data set [13] is CYP2D6. On the set-up: method as in Chow et al. [2010]. As to conditions: healthy subjects; ref Chow et al. [2010]; cited from earlier work.
Data set [14] deals with CYP1A2. Set-up: method as in Chow et al. [2010]. As to conditions: healthy subjects, ref Chow et al. [2010], cited from earlier work.
Data set [15] concerns CYP2C9. On the set-up: method as in Chow et al. [2010]. The note with it: healthy subjects; ref Chow et al. [2010]; cited from earlier work.
The subject of data set [16] is CYP3A4. Set-up: method as in Chow et al. [2010]. As to conditions: healthy subjects; ref Chow et al. [2010]; cited from earlier work.
For data set [17], the system named is PXR-responsive genes like CYP3A4. On the set-up: method as in Ruhl et al. [2004]. As to conditions: HepG2 cells; ref Ruhl et al. [2004]; cited from earlier work.
In data set [18] the test system is cytochrome P450 (CYP) 3A4. On the set-up: method as in Sunaga et al. [2012]. The note with it: ref Sunaga et al. [2012]; cited from earlier work.
The mark [19] stands for this setting: HepG2, concomitant furafylline and omeprazole, control treated with omeprazole.

Some results are limits rather than exact numbers.

Turning to `Cc1nc2c([nH]1)c(=O)n(C)c(=O)n2Cc1ccco1` [furafylline], the “CYP1A2 protein expression in omeprazole-induced cells” value with CYP1A2 [1] (setting [19]) is “reduction was statistically insignificant”. Also, in the data set on CYP2D6 [2], the “CYP2D6 mRNA expression, furafylline with omeprazole” value was “no significant changes”. In the data set on CYP3A4 [3] (setting [19]), the “CYP3A4 protein expression, furafylline with omeprazole” value is on record as “no significant changes”. For the same compound, the “CYP1A2 mRNA expression in omeprazole-induced cells” value in the data set on CYP1A2 [4] (HepG2, furafylline 2 h before omeprazole, concomitant treatment, compared with omeprazole-treated cells (control)) was “significantly reduced”. Besides, in the data set on CYP3A4 [5] (setting [19]), the “CYP3A4 mRNA expression, furafylline with omeprazole” value was “no significant changes”. Moreover, the “CYP2D6 protein expression, furafylline with omeprazole” value in the data set with CYP2D6 [6] (setting [19]) is reported as “no significant changes”.
By IC50 is commonly meant the concentration that gives 50% inhibition. `Nc1ccc(S(=O)(=O)Nc2ccnn2-c2ccccc2)cc1` [sulfaphenazole, reference compound]: in the data set on CYP2C9 [7], the IC50 was […].
Regarding `O=c1cc(-c2ccccc2)oc2ccc3ccccc3c12` [β-naphthoflavone], the “concentration with significantly higher CYP1A2 protein (mean relative intensity)” value in the data set on CYP1A2 [1] (HepG2, 48 h, western blot) is at least 5000 nM. For the same compound, the “effect on CYP1A2 protein expression” value in the data set with CYP1A2 [1] is “significantly higher”. Also, the “effect on CYP3A4 protein expression” value in the data set with CYP3A4 [3] is on record as “remained either unchanged or there were slight changes that were statistically insignificant”. Also, the “CYP1A2 mRNA up-regulation” value is reported as “more than sixfold change” with CYP1A2 [4] (5 μmol/L, HepG2, 48 h, estimated, Ct 33 assumed for untreated control) and 26 fold change with CYP1A2 [4] (50 μmol/L, HepG2, 48 h, estimated, Ct 33 assumed for untreated control). Also, in the data set with CYP1A2 [4] (HepG2, 48 h), the “concentration from which CYP1A2 mRNA induction was detected/observed” value is at least 5000 nM. For the same compound, in the data set with CYP2D6 [6], the “effect on CYP2D6 protein expression” value is listed as “remained either unchanged or there were slight changes that were statistically insignificant”. The IC50 in the data set with CYP1A2 [8] is 0.085 µM.
`COc1ccc2[nH]c([S+]([O-])Cc3ncc(C)c(OC)c3C)nc2c1` (centres unmarked) [omeprazole]: the “effect on CYP1A2 protein expression” value in the data set on CYP1A2 [1] was “statistically insignificant”. In the data set on CYP1A2 [4] (10 μmol/L, HepG2, 48 h, Ct 33 assumed for untreated control), the “CYP1A2 mRNA up-regulation” value was found to be 24 fold changes. For the same compound, in the data set with CYP1A2 [4] (HepG2, 48 h), the “concentration with statistically significant CYP1A2 mRNA induction” value is at least 10000 nM and the “concentration from which CYP1A2 mRNA induction was detected/observed” value is at least 1000 nM. In addition, the “CYP3A4 mRNA induction” value in the data set with CYP3A4 [5] (0.1 μmol/L, HepG2, 48 h) is listed as under 1.5 fold change. Besides, the “concentration with significant CYP3A4 mRNA induction” value in the data set on CYP3A4 [5] (HepG2, 48 h, P < 0.05 vs control) came out at 100 nM. Besides, the “effect on CYP2D6 protein expression” value in the data set on CYP2D6 [6] is recorded as “no effects”.
Turning to `C=C1CC[C@@H]2[C@](C)(CO)[C@H](O)CC[C@@]2(C)[C@@H]1C/C=C1/C(=O)OC[C@H]1O` [andrographolide], in the data set with CYP1A2 [9], the “mRNA expression of CYP1A2” value is given as “decrease”. In addition, the “mRNA expression of CYP3A4” value with 3A4 is given as “decrease”. The IC50 is over 100 µM in the data set with CYP2C9 [7], […] with CYP3A4 [10] and over 100 µM in the data set on CYP1A2 [8]. The “effect on CYP3A4 protein expression” value in the data set on CYP3A4 [3] was “did not affect”. For the same compound, in the data set with CYP2D6 [6], the “effect on CYP2D6 protein expression” value is listed as “up-regulated”. In addition, in the data set with CYP2D6 [6] (all concentrations tested, HepG2, 48 h), the “mean up-regulation of the CYP2D6 protein” value is listed as “less than twofold changes”. The “mRNA expression of CYP2C9” value in the data set with 2C9 was “decrease”.
Regarding `COc1cc(/C=C/C(=O)CC(=O)/C=C/c2ccc(O)c(OC)c2)ccc1O` [curcumin], the “effect on CYP3A4 protein expression” value with CYP3A4 [3] is “significant induction”. The “effect on CYP2D6 protein expression” value with CYP2D6 [6] was “does not affect significantly”. In addition, the “mRNA expression of CYP3A4” value with CYP3A4 [11] is listed as “did not affect”.
Turning to `CC(=O)N1CCN(c2ccc(OCC3COC(Cn4ccnc4)(c4ccc(Cl)cc4Cl)O3)cc2)CC1` (centres unmarked) [ketoconazole, reference compound], in the data set on CYP3A4 [3], the “effect on CYP3A4 protein expression” value was “differences were not proved to be significant”. For the same compound, the half-inhibitory concentration (IC50) in the data set with CYP3A4 [10] is […].
With `CC(C)=CCC/C(C)=C/COc1c2ccoc2cc2oc(=O)ccc12` [bergamottin], in the data set on CYP1A2 [1], the “effect on CYP1A2 protein expression” value was “only a slight induction”. In addition, the “effect on CYP3A4 protein expression” value in the data set with CYP3A4 [3] is reported as “did not affect”. Besides, the “CYP1A2 mRNA induction” value in the data set with CYP1A2 [4] (1 μmol/L, HepG2, 48 h, Ct 33 assumed for untreated control) is given as about 11 fold increase. Further, the “concentration from which CYP1A2 mRNA induction was detected/observed” value in the data set on CYP1A2 [4] (HepG2, 48 h) was at least 1000 nM. Besides, the “levels of CYP1A2 protein and mRNA” value in the data set with CYP1A2 [12] is reported as “increased levels”. Moreover, the “effect on CYP2D6 protein expression” value in the data set with CYP2D6 [6] was “did not affect”.
On to `Oc1ccc(/C=C/c2cc(O)cc(O)c2)cc1` [resveratrol], for which, in the data set with CYP1A2 [1], the “effect on CYP1A2 protein expression” value is recorded as “insignificant”. For the same compound, the “phenotypic index of CYP2D6” value in the data set on CYP2D6 [13] is on record as “inhibit”. Moreover, the “decrease in the caffeine/paraxanthine metabolic ratio” value in the data set with CYP1A2 [14] (4 weeks of 1 g daily) is given as 16%. Besides, in the data set on CYP1A2 [14], the “phenotypic index of CYP1A2” value is on record as “induces”. Moreover, the “phenotypic index of CYP2C9” value in the data set with CYP2C9 [15] is given as “inhibit”. Besides, in the data set with CYP1A2 [4] (HepG2, 48 h), the “concentration with statistically significant CYP1A2 mRNA induction” value was found to be 50000 nM and the “concentration from which CYP1A2 mRNA induction was detected/observed” value is at least 100 nM. For the same compound, the “phenotypic index of CYP3A4” value in the data set on CYP3A4 [16] was “inhibit”. Further, the “CYP2D6 protein induction, average” value with CYP2D6 [6] (0.1 μmol/L, HepG2, 48 h) is “more than twofold changes”. Further, the “effect on CYP2D6 protein expression” value in the data set with CYP2D6 [6] was “statistically significant CYP2D6 protein induction”.
For `CC(C)=CCC/C(C)=C/C=C/C(C)=C/C=C/C(C)=C/C=C/C=C(C)/C=C/C=C(C)/C=C/C=C(\C)CCC=C(C)C` [lycopene], the “activation potential on PXR-responsive genes like CYP3A4” value in data set [17] is on record as “no activation potential”. Besides, the “effect on CYP3A4 protein expression” value in the data set on CYP3A4 [3] is recorded as “did not appear to have any effects”. Moreover, the “inhibition of CYP3A4-mediated drug metabolism” value in data set [18] was “does not inhibit”. Further, the “effect on CYP2D6 protein expression” value with CYP2D6 [6] is “did not appear to have any effects”.

Values taken from PMC4237480, “Cytochrome P450 induction properties of food and herbal-derived compounds using a novel multiplex RT-qPCR in vitro assay, a drug–food interaction prediction tool” (Food Science & Nutrition, 2014).
